# Test system: hippocampal kindled rats
# Experiment: Hippocampal kindled rat model
# Assay type: in vivo
# Conditions: for Results (protected/tested animals) / Seizure Duration ± SEM / Seizure Score ± SEM (Racine scale): i.p.
# Experimental: The electrodes were implanted in brains one week prior to experiments. Then, rats were stimulated with suprathreshold stimuli of 200 µA for 10 sec at 50 Hz every 30 min for 6 h on alternate days until fully kindled. One week after reaching the fully kindled state, the effect of 23 and 27 mg/kg, i.p. of KM-568 in the groups of 5–6 rats were evaluated. The tests were performed at different time points (0–2.25 h) after compound administration. The results were scored as behavioral seizure score (according to Racine scale) and after discharge duration. The protection was noted if the seizure score was 3 or less.
smiles,measurement,setting,value
"C[C@H](O)CNC(=O)/C=C/c1ccccc1 [KM-568, S(+)-(2E)-N-(2-hydroxypropyl)-3-phenylprop-2-enamide]",ED50,"Rattus norvegicus, ip",24.2 mg/kg
same,Results (protected/tested animals),"23 mg/kg, 15 min",2/6
same,Seizure Duration ± SEM,"23 mg/kg, 15 min",55.67 ± 6.44 s
same,Seizure Score ± SEM (Racine scale),"23 mg/kg, 15 min",3.67 ± 0.84
same,Seizure Duration ± SEM,"23 mg/kg, 45 min",65.83 ± 14.61 s
same,Seizure Score ± SEM (Racine scale),"23 mg/kg, 45 min",5.0 ± 0.0
same,Seizure Duration ± SEM,"23 mg/kg, 75 min",56.67 ± 6.96 s
same,Seizure Score ± SEM (Racine scale),"23 mg/kg, 75 min",5.0 ± 0.0
same,Seizure Duration ± SEM,"23 mg/kg, 100 min",57.83 ± 9.27 s
same,Seizure Score ± SEM (Racine scale),"23 mg/kg, 100 min",5.0 ± 0.0
same,Seizure Duration ± SEM,"23 mg/kg, 135 min",55.17 ± 9.48 s
same,Seizure Score ± SEM (Racine scale),"23 mg/kg, 135 min",5.0 ± 0.0
same,Results (protected/tested animals),"27 mg/kg, 15 min",4/5
same,Seizure Duration ± SEM,"27 mg/kg, 15 min",50.4 ± 3.08 s
same,Seizure Score ± SEM (Racine scale),"27 mg/kg, 15 min",1.8 ± 0.97
same,Seizure Score ± SEM (Racine scale),"27 mg/kg, 45 min",4.2 ± 0.80
same,Seizure Duration ± SEM,"27 mg/kg, 75 min",70.6 ± 27.57 s
same,Seizure Score ± SEM (Racine scale),"27 mg/kg, 75 min",3.4 ± 0.98
same,Seizure Duration ± SEM,"27 mg/kg, 100 min",62.5 ± 10.71 s
same,Seizure Score ± SEM (Racine scale),"27 mg/kg, 100 min",5.0 ± 0.0
same,Seizure Duration ± SEM,"27 mg/kg, 135 min",95.0 ± 17.78 s
same,Seizure Score ± SEM (Racine scale),"27 mg/kg, 135 min",5.0 ± 0.0

# From PMC7352759, “S(+)-(2E)-N-(2-Hydroxypropyl)-3-Phenylprop-2-Enamide (KM-568): A Novel Cinnamamide Derivative with Anticonvulsant Activity in Animal Models of Seizures and Epilepsy” (International Journal of Molecular Sciences, 2020)
